These results are taken from paper PMC12801355, “Peptide Amphiphiles Hitchhike on Endogenous Biomolecules for Enhanced Cancer Imaging and Therapy” (Advanced Materials (Deerfield Beach, Fla.), 2025).

Data set [1] is described as follows: Fluorescence polarization of PA nanostructures. Type of data set: physicochemical. As to conditions: ICG‐conjugated SA‐E (10 mol%) mixed with MMAE‐conjugated SA‐E (90 mol%), 200 µM total; mean ± SEM. Here is the method:
ICG (10 mol%) containing PA micelles were prepared by mixing ICG‐conjugated PAs with unconjugated or MMAE‐conjugated PAs to achieve a final concentration of 20 µM ICG‐conjugated PAs and 200 µM of total PAs. Aliquots of 100 µL were added to a 96‐well plate (3 wells for each PA). Fluorescence polarization measurements were performed using a microplate reader (TECAN Spark 20 M). The corrected parallel intensity (I par) and perpendicular intensity (Iper) were used to calculate the fluorescence anisotropy (r) using the following equation: r = […].
Background: Polarisation of emitted light reports the rotation of a fluorescent probe.

Data set [2] has as its system HCT‐116 tumor. Here is the method:
(§1) All experiments were approved by the Oregon Health and Science University (OHSU) Institutional Animal Care and Use Committee (IACUC) (TR01_IP00000674) and conformed to the guidelines set by the United States Animal Welfare Act and the National Institutes of Health. Mice were aged between 3 and 8 months and 20–30 g in weight and were housed in specific pathogen free cages. Human, mouse, or rat cells were injected into nude (The Jackson Laboratory, 002019), NSG mice (The Jackson Laboratory, 005557), Balb/c mice (The Jackson Laboratory, 000651), or C57Bl/6J mice (The Jackson Laboratory, 000664), as specified below. Cells were injected in 100 µL sterile DMEM at a concentration of 0.5–1×10^7 cells mL^−1, unless otherwise specified. For tumor accumulation and biodistribution studies, A375 cells were injected intradermally into the left ears of NSG mice (The Jackson Laboratory, 005557). MCF7 cells were injected into the mammary fat pad of NSG mice. HCT‐116, RG2, and HeLa (wild type or LDL‐R knockout) cells were subcutaneously injected into the left or both flanks of NSG mice. 4T1 cells were injected into the mammary fat pad of Balb/c mice. LLC1, MC38, and TRAMP‐C2 (wild type or SR‐B1 knockout) were injected into C57Bl/6J mice. Patient‐derived xenografts were generated by injecting the patient‐derived cancer cells subcutaneously into the left flank of NSG mice. ApoA1 and LDL‐R knockout mice were purchased from the Jackson Laboratory (002055 and 002207, respectively). MC38 cells were subcutaneously injected into both flanks of these mice. Apc^min and MMTV‐PyMT mice were purchased from the Jackson Laboratory (002020 and 002374). For antitumor activity studies, 4T1 cells were injected into the mammary fat pad of Balb/c mice. HCT‐116 and RG2 cells were subcutaneously injected into the left flanks of nude mice. For antitumor activity studies, HCT‐116 cells were injected in a 1:1 mixture of DMEM and Matrigel (Life Science 354263).
(§2) Mice were injected with 4T1, RG2, or HCT‐116 cells as described above. Mice were then treated intravenously with the free MMAE (0.1 or 0.3 mg kg^−1), SA‐E‐MMAE (0.3, 0.6, 0.8, or 1 mg kg^−1) or PBS (10 mM, pH 7.4). 5 doses were given every 2–3 days over 11 days. […] Tumor size and mouse weight were monitored 2–3 times per week until a humane endpoint (tumor size ≈2 cm or >20% body weight loss) or the study endpoint (18, 25, or 120 days for 4T1, RG2, and HCT‐116 studies, respectively). Tumor size was measured in two directions with a caliper rounded to the nearest tenth of a mm. Volume was calculated as a basic sphere of 4/3πr^3.

In data set [3] the test system is 4T1 tumor. Briefly: Antitumor effect, 4T1 orthotopic mouse model. As to the method:
as §1, §2

For data set [4], the system named is LPs (HDL, LDL, VLDL) and albumin in pooled human plasma. In words: FPLC of PAs in 10% human plasma. As to conditions: MMAE conjugated SA‐E, 250 µM, detection at 250 nm.
Protocol: FPLC experiments were performed using SA‐E, SA‐K, or No‐SA conjugated with ICG or SA‐E conjugated with MMAE at a final concentration of 250 µM in filtered PBS (10 mM, pH 7.4) with or without human plasma or purified LPs or albumin. For analysis of SA‐E interactions with purified LPs, VLDL, LDL, HDL, and human serum albumin were diluted in filtered PBS to approximate concentrations found in 10% human plasma: 0.0025, 0.13, 0.05, and 5mg mL^−1, respectively. SA‐E was incubated with the purified LP/protein mixture for 30 min at 37 °C before injection. For analysis of plasma interactions, PAs or No‐SA were incubated in PBS containing 10% pooled human plasma for 30 min at 37 °C before injection. The total volume injected for all samples was 400 µL. All data was collected on an ÄKTA pure chromatography system using the following running conditions: size exclusion chromatography on a Superose 6 Increase 10/300 GL column with a column volume (CV) of 30 mL, pre‐column pressure limit of 5 MPa, delta‐column pressure limit of 2.6 MPa, flow rate of 0.75 mL min^−1, in 100% PBS. The sample running method included first an equilibration step before injection of the sample with 100% PBS for 0.5 CV, followed by sample application via 1 mL capillary loop in 100% PBS, and finished with a linear elution consisting of 2 CV collected in 1 mL fractions. The UV‐Vis detector wavelengths were 250, 280, and 700 nm to detect MMAE, all proteins/LPs, and ICG, respectively.
The subject of data set [5] is RG2 xenografts. In words: Antitumor effect, RG2 xenografts in nude mice. Type of data set: in vivo, mouse. As to conditions: 1 mg kg^−1 IV, 5 doses. As to the method:
All experiments were approved by the Oregon Health and Science University (OHSU) Institutional Animal Care and Use Committee (IACUC) (TR01_IP00000674) and conformed to the guidelines set by the United States Animal Welfare Act and the National Institutes of Health. Mice were aged between 3 and 8 months and 20–30 g in weight and were housed in specific pathogen free cages. Human, mouse, or rat cells were injected into nude (The Jackson Laboratory, 002019), NSG mice (The Jackson Laboratory, 005557), Balb/c mice (The Jackson Laboratory, 000651), or C57Bl/6J mice (The Jackson Laboratory, 000664), as specified below. Cells were injected in 100 µL sterile DMEM at a concentration of 0.5–1×10^7 cells mL^−1, unless otherwise specified. For tumor accumulation and biodistribution studies, A375 cells were injected intradermally into the left ears of NSG mice (The Jackson Laboratory, 005557). MCF7 cells were injected into the mammary fat pad of NSG mice. […]
Mice were injected with 4T1, RG2, or HCT‐116 cells as described above. […] Tumor size and mouse weight were monitored 2–3 times per week until a humane endpoint (tumor size ≈2 cm or >20% body weight loss) or the study endpoint (18, 25, or 120 days for 4T1, RG2, and HCT‐116 studies, respectively). Tumor size was measured in two directions with a caliper rounded to the nearest tenth of a mm. Volume was calculated as a basic sphere of 4/3πr^3.

Like-named read-outs stand apart in the source and are kept apart here. *1 amine or outer side, *2 acyl side, *3 side chain or, on linkers, in order; H or OH if unused. Where a SMILES comes first, the peptide text is derived from it. Bridges are numbered along the chain shown (N, C = ends). Roman numbers before positions name the chains, in order. [ ]: non-standard residue; d: D form. The star is where a group is joined. Hexanoyl(6-succinimido-3yl) = O=C1CC([*:1])C(=O)N1CCCCCC(=O)[*:2]; Dolaproine = CO[C@@H]([C@@H]1CCCN1)[C@@H](C)C(=O)O; Dil = CC[C@H](C)[C@H](NC)[C@@H](CC(=O)O)OC; PABC = O=C(OCc1ccc(N[*:1])cc1)[*:2]; Palmitoyl = CCCCCCCCCCCCCCCC(=O)*; X1 = C[C@@H](N*)[C@@H](O)c1ccccc1; Cit = NC(=O)NCCC[C@H](N)C(=O)O; NMeV = CN[C@H](C(=O)O)C(C)C

As for `CCCCCCCCCCCCCCCC(=O)NCC(=O)NCC(=O)NCC(=O)N[C@@H](Cc1c[nH]cn1)C(=O)N[C@@H](C)C(=O)N[C@@H](C)C(=O)N[C@@H](CC(N)=O)C(=O)NCC(=O)N[C@@H](CCC(=O)O)C(=O)N[C@@H](CCC(=O)O)C(=O)N[C@@H](CSC1CC(=O)N(CCCCCC(=O)N[C@H](C(=O)N[C@@H](CCCNC(N)=O)C(=O)Nc2ccc(COC(=O)N(C)[C@H](C(=O)N[C@H](C(=O)N(C)[C@@H]([C@@H](C)CC)[C@@H](CC(=O)N3CCC[C@H]3[C@H](OC)[C@@H](C)C(=O)N[C@H](C)[C@@H](O)c3ccccc3)OC)C(C)C)C(C)C)cc2)C(C)C)C1=O)C(=O)N[C@@H](CCC(=O)O)C(=O)O` (some centres unmarked) [SA‐E‐MMAE] (I: Palmitoyl-GGGHAANGEECE-OH / II: V[Cit][PABC][NMeV]V[Dil][Dolaproine]-X1; linker I:11-II:N via Hexanoyl(6-succinimido-3yl); C-terminus assumed), the “fluorescence anisotropy of ICG in micelles” value in data set [1] is 0.188 ± 0.002. Further, in data set [2] (0.8 mg kg^−1 IV, 5 doses, n = 4, log‐rank), the overall survival entry is recorded as “significantly improved the overall survival”. In data set [2] (0.8 mg kg^−1 of MMAE IV, days 11, 14, 17, 19, 21, all mice, n = 4), the “effect on tumor size” value is recorded as “reduction in the tumor size”. Also, the average tumor volume result is listed as “≈ 150 mm^3” in data set [2] (day 21, end of treatment) and “≈ 40 mm^3” in data set [2] (day 33). In data set [2] (day 120), the “tumor‐free mice” value was “one mouse remained tumor‐free on day 120”. Besides, the tumor growth reduction entry in data set [3] (0.6 mg kg^−1 (based on MMAE) IV, 5 doses over 11 days, n = 5, versus free MMAE and PBS) is “≈ 75%”. Further, the body weight entry in data set [3] (0.6 mg kg^−1 IV, 5 doses) is “no significant weight loss”; in data set [5] (at the beginning of the therapy, overall tolerated), “slight weight loss”. Moreover, in data set [4], the “plasma component bound (FPLC)” value is “assembled with HDL”. For the same compound, the “reduction in the tumor volume” value in data set [5] (n = 4, compared to the control) is “around 80%”.
